Assay results as given in patent publication US8084459B2, “Substituted quinazolinones for treating neurological conditions” (Prana Biotechnology Ltd, priority 2004, dated 2011).

Experiments:
[1] = system: Aβ1-42 toxicity in neuronal cortical cells; assay: Assay 3(c) Aβ neurotoxicity and neuroprotection (MTS); assay type: cell-based, mouse; conditions: 20 uM Aβ1-42, cortical neurons, 4 days
Method: Primary Cortical Neuronal Cultures
Cortical cultures were prepared as previously described (White et al., 1998). Embryonic day 14 BL6Jx129sv mouse cortices were removed, dissected free of meninges and dissociated in 0.025% (wt/vol) trypsin. Dissociated cells were plated in 48 well culture plates at a density of 2×10^6 cells/mL in MEM with 25% (vol/vol) FCS and 5% (vol/vol) HS and incubated at 37° C., 2 hrs. Media was then replaced with Neurobasal media (Invitrogen Life Technologies) and B27 supplements (Invitrogen Life Technologies). Cultures were maintained at 37° C. in 5% CO2. Prior to experimentation, the culture medium was replaced with Neurobasal media and B27 minus antioxidants (Invitrogen Life Technologies).
(c) Assay for Aβ Neurotoxicity and Aβ Neuroprotection
Neuronal cortical cells were cultured for five days as per Assay 2. On day six the neurobasal (NB) media (Invitrogen Life Technologies) and B27 supplement (Invitrogen Life Technologies) were replaced with NB media and B27 supplement (no antioxidants). On day six, test compounds were individually added to the neuronal cell cultures:
(§1) The test compounds were dissolved in 100% DMSO to a concentration of 2.5 mM (10 mM if excess compound was weighed out per vial—then diluted to 2.5 mM). 2.5 mM stock solution was serially diluted 1 in 10 to give working solutions of 250 uM, 25 uM, 2.5 uM.
Aβ was initially dissolved in 20 mM NaOH to a concentration of 1 mM and sonicated for 5 minutes. The peptide was then diluted in H2O and 10×PBS to a final concentration of 200 uM Aβ in 1× PBS. The peptide was again sonicated for 5 minutes and then spun at 14000 rpm for 5 min and transferred to a fresh tube.
as §1, with “in 10 [in NB media and B27 (no antioxidants)] to give” for “in 10 to give”, “2.5 uM. Test compounds were not added directly to cells, instead they were added to a 48 well ‘Drug Plate’ as comprised below:” for “2.5 uM.”
Preparation of “Drug Plate”:
Well 1: 515 ul NB+B27 (no antioxidant)*+24 ul 25 uM test compound+60 ul Aβ diluent**
Well 2: 515 ul NB+B27 (no antioxidant)+24 ul 250 uM test compound+60 ul Aβ diluent
Well 3: 515 ul NB+B27 (no antioxidant)+24 ul test compound diluent***+60 ul Aβ1-42
Well 4: 515 ul NB+B27 (no antioxidant)+24 ul 2.5 uM test compound+60 ul Aβ1-42
Well 5: 515 ul NB+B27 (no antioxidant)+24 ul 25 uM test compound+60 ul Aβ1-42
Well 6: 515 ul NB+B27 (no antioxidant)+24 ul 250 uM test compound+60 ul Aβ1-42 diluent
Well 7: 515 ul NB+B27 (no antioxidant)+24 ul test compound diluent+60 ul Aβ1-42 diluent
Well 8: 600 ul NB+B27 (no antioxidant)
The Drug Plate was incubated at 37° C. for 15 mins. 200 ul of each well was added in triplicate to the corresponding cell plate. The cell plate was incubated at 37 C, for 4 days.
* NB media+B27 (no antioxidants)
** Aβ diluent 2 mM NaOH, 1×PBS
*** PBT diluent 10% DMSO in NB+B27 (no antioxidant)
On the 4th day after treating the cells the assay is completed by adding MTS to the cells.

[2] = Assay 3(d) test compound cytotoxicity (MTS); assay type: cell-based; conditions: BL6Jx129sv, mouse, primary cortical neuronal cultures, cortical neurons; for viability at 4 days, 1 µM: read-out: Assay 3(d) Cytotoxicity (% viable at 1 uM); for viability at 4 days, 10 µM: read-out: Assay 3(d) Cytotoxicity (% viable at 10 uM)
Procedure, shortened: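 E14 mouse (BL6Jx129sv) primary cortical neurons cultured 5 days, then exposed on day 6 to compound prediluted in Neurobasal/B27 without antioxidants, working solutions 2.5, 25, 250 uM, in triplicate for 4 days at 37 °C. Viability by MTS, 2 h at 37 °C, absorbance 560 nm.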

[3] = system: soluble and insoluble Aβ in the brain; assay: Assay 11 effect on Aβ deposits in transgenic animals (soluble and insoluble Aβ, Western blot); assay type: in vivo, APP2576 transgenic mouse; conditions: APP2576 mice; for Tg mice Insoluble Fraction: % change compared with vehicle alone control mice: insoluble Aβ; for Tg mice Soluble Fraction: % change compared with vehicle alone control mice: soluble Aβ

| SMILES | Assay 3(c) Neuroprotection (% inhibition of Abeta toxicity) [1] [%] | viability at 4 days, 1 µM [2] [%] | viability at 4 days, 10 µM [2] [%] | Tg mice Insoluble Fraction: % change compared with vehicle alone control mice [3] | Tg mice Soluble Fraction: % change compared with vehicle alone control mice [3] |
| --- | --- | --- | --- | --- | --- |
| Cc1noc(C)c1Cn1cnc2c(O)c(Cl)cc(Cl)c2c1=O [Compound 1085] | 7 | 99 | 72 |  |  |
| Cc1nc(Cn2cnc3c(O)c(Cl)cc(Cl)c3c2=O)cs1 [Compound 1084] | 2 | 100 | 93 | −17% (insol), | −29% (sol) |
| Br.CCCn1cnc2c(O)c(Cl)cc(Cl)c2c1=O [Compound 1097] |  | 99 | 78 | +1% (insol) | −22% (sol) |
| O=c1c2c(Cl)cc(Cl)c(O)c2ncn1CCN1CCCC1 [Compound 1075] |  | 99 | 87 | +9% (insol), | −19% (sol), |
| O=c1c2c(Cl)cc(Cl)c(O)c2ncn1Cc1ccccn1 [Compound 1077] |  | 101 | 86 | Negligible effect on | −17% (sol), |
